Data: US11738062B2, “Herbal medicine extracts and uses and methods of preparation thereof” (ALPHA OASIS LLC, priority 2018, dated 2023)

System: collagen-induced arthritis DBA/1J mouse model
Test: murine model of collagen-induced arthritis, Arthritic Index (AI) scoring
Assay type: in vivo
Settings: #4 and #10 100 μL topical patch, ENBREL 3 mg/kg subcutaneous

Substance: ENBREL®
- rate of disease progression (overall arthritis severity, FIG. 2) (14 days of daily treatment): swiftly arrested
- reduction in arthritis severity score (AI) (after 14 days of daily treatment, compared to Group 2 (diseased, vegetable oil)): 71%
